Here are results for 3 compounds from patent US20250376459A1, “CRYSTALLINE FORMS OF A TYK2 INHIBITOR AND USES THEREOF” (Alumis Inc., priority 2022, published 2025).

Molecules are shown by their SMILES. Counter-ions that a name gives are not always drawn. Like-named read-outs stand apart in the source and are kept apart here.

Usually solubility stands for the dissolved amount per volume that the medium holds.

Format in all cases: physicochemical
Series [1] can be described thus: solubility in SGF, FeSSIF, FaSSIF and water.
Series [2] is described as follows: dynamic vapor sorption (DVS) analysis. The protocol: Dynamic vapor sorption analysis (DVS) was performed on a DVS Intrinsic PLUS (SMS, UK). The sample was placed into a tared sample chamber and automatically weighed. The sample was dried at 40° C. until the dm/dt was less than 0.002% and cooled to 25° C. The instrument parameters were as follows: step time (min)=60 min; sample temperature=25 C; cycle=full cycle; adsorption (% RH)=0, 10, 20, 30, 40, 50, 60, 70, 80, 90; desorption (% RH)=80, 70, 60, 50, 40, 30, 20, 10, 0; saved data rate=5 sec; total flow rate=200 sccm; post experimental flow rate=200 sccm.

Series [3] is described as follows: solid form chemical and physical stability.
[4] abbreviates: about 0% to about 80% RH at 25° C.
Where [5] appears, read: about 0% to about 90% RH at 25° C.

For the compound `[2H]C([2H])([2H])CC(=O)c1cnc(NC(=O)C2CC2)cc1Nc1cccc(-c2ncn(C([2H])([2H])[2H])n2)c1OC` [Form 1-1, N-(4-((2-methoxy-3-(1-(methyl-d3)-1H-1,2,4-triazol-3-yl)phenyl)amino)-5-(propanoyl-3,3,3-d3)pyridin-2-yl) cyclopropanecarboxamide, methanesulfonic acid salt], the “salt dissociation in solubility media” value in series [1] (FaSSIF, FeSSIF and water) is on record as “dissociate to the free base”. The solubility in series [1] (FaSSIF, read-out: solubility in FaSSIF) is 1 to 2 µg/mL; in series [1] (FeSSIF, read-out: solubility in FeSSIF), 20 to 30 µg/mL; in series [1] (SGF, simulated gastric fluid, read-out: solubility in SGF) it was above 4100 µg/mL. Further, in series [2], the hygroscopicity result is “only slightly hygroscopic”. Besides, the entries for the “DVS reversable total mass change” value in series [2] (setting [4]) and in series [2] (setting [5]) were “about 0.6 wt. %” and “about 1.3 wt. %”, respectively. The “form change after DVS analysis” value in series [2] is recorded as “No form change”. Moreover, the “time chemically and physically stable in the solid form” value in series [3] (40° C./75% RH) and in series [3] (60° C.) was “at least 10 days” throughout.

With `[2H]C([2H])([2H])CC(=O)c1cnc(NC(=O)C2CC2)cc1Nc1cccc(-c2ncn(C([2H])([2H])[2H])n2)c1OC` [Form 5-2, N-(4-((2-methoxy-3-(1-(methyl-d3)-1H-1,2,4-triazol-3-yl)phenyl)amino)-5-(propanoyl-3,3,3-d3)pyridin-2-yl) cyclopropanecarboxamide, sulfuric acid salt], the “DVS reversable total mass change” value in series [2] (setting [4]) is reported as “about 0.9 wt. %”; in series [2] (setting [5]), “about 1.4 wt. %”. Besides, the “form change after DVS analysis” value in series [2] was “No form change”.

For the compound `[2H]C([2H])([2H])CC(=O)c1cnc(NC(=O)C2CC2)cc1Nc1cccc(-c2ncn(C([2H])([2H])[2H])n2)c1OC` [Form 6, N-(4-((2-methoxy-3-(1-(methyl-d3)-1H-1,2,4-triazol-3-yl)phenyl)amino)-5-(propanoyl-3,3,3-d3)pyridin-2-yl) cyclopropanecarboxamide, p-toluenesulfonic acid salt], the “DVS reversable total mass change” value is listed as “about 0.6 wt. %” in series [2] (setting [4]) and “about 0.7 wt. %” in series [2] (setting [5]). Moreover, in series [2], the “form change after DVS analysis” value is “No form change”.
